Test results taken from patent US20150307520A1, “NOVEL HETEROARYL AND HETEROCYCLE COMPOUNDS, COMPOSITIONS AND METHODS THEREOF” (HUTCHISON MEDIPHARMA LIMITED, priority 2012, published 2015).

Legend:
Format in all cases: biochemical
p110β/p85α = p110β/p85α (Homo sapiens, UniProt P42338); experiment: Transcreener KINASE Assay, kinase inhibition of p110β/p85α; settings: for PI3Kβ IH % @ 1 uM: 1 uM test compound; for IC50: read-out: PI3Kβ IC50
How it was run: (§1)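 Steps: compound (2% DMSO final) plus enzyme in HEPES/NaCl/EGTA/CHAPS/3 mM MgCl2/1 mM DTT buffer; start with PIP2/ATP addition (30 uM/10 uM solution); 80 min RT; add ADP detection mix, 60 min RT; read fluorescence polarization.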

p110γ = p110γ (Homo sapiens, UniProt P48736); experiment: Transcreener KINASE Assay, kinase inhibition of p110γ; settings: for PI3Kγ IH % @ 1 uM: 1 uM test compound; for IC50: read-out: PI3Kγ IC50
p110γ, sequence (P48736 whole entry): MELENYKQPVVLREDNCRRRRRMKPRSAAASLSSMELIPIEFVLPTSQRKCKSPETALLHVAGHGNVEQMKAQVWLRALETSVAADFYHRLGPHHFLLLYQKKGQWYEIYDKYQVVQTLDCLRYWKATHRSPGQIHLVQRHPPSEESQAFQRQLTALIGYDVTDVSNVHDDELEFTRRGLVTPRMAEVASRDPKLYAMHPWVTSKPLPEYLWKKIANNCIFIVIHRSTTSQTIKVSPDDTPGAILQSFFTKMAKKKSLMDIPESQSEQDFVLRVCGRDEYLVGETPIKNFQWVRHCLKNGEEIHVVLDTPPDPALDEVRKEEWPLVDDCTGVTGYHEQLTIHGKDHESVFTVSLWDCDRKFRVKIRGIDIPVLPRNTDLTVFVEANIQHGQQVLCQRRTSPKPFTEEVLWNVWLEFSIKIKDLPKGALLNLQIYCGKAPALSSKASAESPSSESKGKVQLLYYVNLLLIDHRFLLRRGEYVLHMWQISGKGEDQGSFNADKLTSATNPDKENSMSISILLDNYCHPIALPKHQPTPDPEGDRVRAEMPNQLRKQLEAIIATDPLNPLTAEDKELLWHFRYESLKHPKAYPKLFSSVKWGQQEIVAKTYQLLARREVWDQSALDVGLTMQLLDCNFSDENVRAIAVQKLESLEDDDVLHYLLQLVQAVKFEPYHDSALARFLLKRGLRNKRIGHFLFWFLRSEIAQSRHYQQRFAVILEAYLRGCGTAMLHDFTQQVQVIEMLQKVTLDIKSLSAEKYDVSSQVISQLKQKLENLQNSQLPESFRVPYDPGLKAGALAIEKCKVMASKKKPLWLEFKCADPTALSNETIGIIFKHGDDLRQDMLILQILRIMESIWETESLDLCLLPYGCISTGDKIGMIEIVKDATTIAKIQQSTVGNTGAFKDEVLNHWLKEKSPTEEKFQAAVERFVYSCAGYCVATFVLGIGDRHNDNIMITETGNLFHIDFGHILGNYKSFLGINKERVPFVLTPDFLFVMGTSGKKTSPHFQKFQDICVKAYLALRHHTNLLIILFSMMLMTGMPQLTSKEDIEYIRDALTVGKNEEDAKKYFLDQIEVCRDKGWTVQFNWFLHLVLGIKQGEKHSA
How it was run: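 FP read-out: far-red competitive immunoassay sensing ADP produced by recombinant p110/p85 or p110γ enzyme. Reaction 80 min RT, then detection mix 60 min RT. IC50 from curve fit.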

p110δ/p85α = p110δ/p85α (Homo sapiens, UniProt O00329); experiment: Transcreener KINASE Assay, kinase inhibition of p110δ/p85α; settings: for PI3Kδ IH % @ 1 uM: 1 uM test compound; for IC50: read-out: PI3Kδ IC50
p110δ/p85α, sequence (O00329 whole entry): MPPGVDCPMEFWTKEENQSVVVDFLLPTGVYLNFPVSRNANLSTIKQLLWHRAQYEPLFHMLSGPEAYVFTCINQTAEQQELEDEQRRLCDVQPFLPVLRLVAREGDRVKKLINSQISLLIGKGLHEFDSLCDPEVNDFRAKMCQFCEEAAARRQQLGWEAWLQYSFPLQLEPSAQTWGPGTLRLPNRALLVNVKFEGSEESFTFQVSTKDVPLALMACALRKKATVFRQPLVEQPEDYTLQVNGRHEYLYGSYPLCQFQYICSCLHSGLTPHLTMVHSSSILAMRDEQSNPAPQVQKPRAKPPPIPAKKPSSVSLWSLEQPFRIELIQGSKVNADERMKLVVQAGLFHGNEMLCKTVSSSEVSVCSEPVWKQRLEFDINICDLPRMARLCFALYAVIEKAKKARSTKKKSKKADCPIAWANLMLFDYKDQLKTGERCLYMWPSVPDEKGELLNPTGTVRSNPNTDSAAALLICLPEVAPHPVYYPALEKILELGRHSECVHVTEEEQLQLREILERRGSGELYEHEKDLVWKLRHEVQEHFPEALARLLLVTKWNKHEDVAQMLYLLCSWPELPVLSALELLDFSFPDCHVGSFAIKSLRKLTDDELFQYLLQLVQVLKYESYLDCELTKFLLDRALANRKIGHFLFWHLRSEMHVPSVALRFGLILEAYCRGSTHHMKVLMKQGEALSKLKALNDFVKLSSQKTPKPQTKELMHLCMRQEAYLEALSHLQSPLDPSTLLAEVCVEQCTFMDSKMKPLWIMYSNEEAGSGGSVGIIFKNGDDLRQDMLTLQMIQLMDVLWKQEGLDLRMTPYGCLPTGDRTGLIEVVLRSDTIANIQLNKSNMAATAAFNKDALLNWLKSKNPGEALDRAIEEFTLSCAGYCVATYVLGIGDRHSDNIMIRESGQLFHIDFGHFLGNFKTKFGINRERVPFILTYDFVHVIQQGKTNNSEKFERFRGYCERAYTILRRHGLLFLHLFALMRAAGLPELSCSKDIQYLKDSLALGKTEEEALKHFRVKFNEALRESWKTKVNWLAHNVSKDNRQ
p110δ/p85α, sequence (P27986 whole entry partner): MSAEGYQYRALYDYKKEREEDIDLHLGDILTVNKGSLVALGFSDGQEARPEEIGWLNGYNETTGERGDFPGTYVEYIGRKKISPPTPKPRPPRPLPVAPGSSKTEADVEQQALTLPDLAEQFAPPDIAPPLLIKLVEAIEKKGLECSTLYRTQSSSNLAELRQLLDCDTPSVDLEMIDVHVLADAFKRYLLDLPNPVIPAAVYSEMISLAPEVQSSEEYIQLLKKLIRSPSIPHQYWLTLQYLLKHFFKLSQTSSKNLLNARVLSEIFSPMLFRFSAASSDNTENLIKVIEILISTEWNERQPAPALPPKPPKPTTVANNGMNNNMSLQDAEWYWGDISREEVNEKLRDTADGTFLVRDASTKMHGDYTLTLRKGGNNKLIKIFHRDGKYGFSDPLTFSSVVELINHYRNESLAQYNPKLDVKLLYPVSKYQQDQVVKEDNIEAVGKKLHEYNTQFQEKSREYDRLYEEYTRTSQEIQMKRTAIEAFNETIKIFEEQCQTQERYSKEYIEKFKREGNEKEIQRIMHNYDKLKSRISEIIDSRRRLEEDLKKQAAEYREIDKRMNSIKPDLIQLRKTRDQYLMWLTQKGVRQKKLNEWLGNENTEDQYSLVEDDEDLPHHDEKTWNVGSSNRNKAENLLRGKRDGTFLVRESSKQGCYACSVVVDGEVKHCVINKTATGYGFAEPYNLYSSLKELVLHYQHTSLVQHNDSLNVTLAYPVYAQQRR
How it was run: as §1

p110β/p85α, sequence (P42338 whole entry): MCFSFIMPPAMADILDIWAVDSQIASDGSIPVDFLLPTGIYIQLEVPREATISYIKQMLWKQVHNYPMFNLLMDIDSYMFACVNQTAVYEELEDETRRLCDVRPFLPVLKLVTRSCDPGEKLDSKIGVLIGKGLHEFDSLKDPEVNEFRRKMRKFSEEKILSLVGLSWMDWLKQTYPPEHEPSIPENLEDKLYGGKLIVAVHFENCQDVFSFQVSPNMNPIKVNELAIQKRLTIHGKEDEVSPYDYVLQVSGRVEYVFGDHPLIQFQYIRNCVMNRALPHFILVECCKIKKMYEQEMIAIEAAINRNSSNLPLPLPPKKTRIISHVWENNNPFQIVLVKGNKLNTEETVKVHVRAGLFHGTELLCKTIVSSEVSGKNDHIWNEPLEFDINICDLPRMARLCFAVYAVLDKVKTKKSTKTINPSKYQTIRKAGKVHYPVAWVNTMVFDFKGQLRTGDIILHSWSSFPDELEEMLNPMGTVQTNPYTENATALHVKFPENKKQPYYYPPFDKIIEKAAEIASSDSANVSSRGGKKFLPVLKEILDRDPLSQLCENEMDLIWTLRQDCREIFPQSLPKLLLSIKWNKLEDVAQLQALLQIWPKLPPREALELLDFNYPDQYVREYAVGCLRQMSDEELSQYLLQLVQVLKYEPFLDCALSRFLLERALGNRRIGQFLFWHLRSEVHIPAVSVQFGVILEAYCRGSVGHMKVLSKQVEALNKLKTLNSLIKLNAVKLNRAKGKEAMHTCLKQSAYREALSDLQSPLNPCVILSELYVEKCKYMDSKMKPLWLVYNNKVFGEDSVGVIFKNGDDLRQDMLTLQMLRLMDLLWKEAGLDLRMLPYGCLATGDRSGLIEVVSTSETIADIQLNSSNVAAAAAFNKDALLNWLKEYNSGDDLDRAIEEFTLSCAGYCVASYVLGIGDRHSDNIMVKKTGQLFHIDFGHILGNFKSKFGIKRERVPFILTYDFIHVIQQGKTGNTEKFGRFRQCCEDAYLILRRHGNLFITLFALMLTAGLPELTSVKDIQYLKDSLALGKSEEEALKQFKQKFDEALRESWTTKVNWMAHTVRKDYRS
p110β/p85α, sequence (P27986 2-724 partner): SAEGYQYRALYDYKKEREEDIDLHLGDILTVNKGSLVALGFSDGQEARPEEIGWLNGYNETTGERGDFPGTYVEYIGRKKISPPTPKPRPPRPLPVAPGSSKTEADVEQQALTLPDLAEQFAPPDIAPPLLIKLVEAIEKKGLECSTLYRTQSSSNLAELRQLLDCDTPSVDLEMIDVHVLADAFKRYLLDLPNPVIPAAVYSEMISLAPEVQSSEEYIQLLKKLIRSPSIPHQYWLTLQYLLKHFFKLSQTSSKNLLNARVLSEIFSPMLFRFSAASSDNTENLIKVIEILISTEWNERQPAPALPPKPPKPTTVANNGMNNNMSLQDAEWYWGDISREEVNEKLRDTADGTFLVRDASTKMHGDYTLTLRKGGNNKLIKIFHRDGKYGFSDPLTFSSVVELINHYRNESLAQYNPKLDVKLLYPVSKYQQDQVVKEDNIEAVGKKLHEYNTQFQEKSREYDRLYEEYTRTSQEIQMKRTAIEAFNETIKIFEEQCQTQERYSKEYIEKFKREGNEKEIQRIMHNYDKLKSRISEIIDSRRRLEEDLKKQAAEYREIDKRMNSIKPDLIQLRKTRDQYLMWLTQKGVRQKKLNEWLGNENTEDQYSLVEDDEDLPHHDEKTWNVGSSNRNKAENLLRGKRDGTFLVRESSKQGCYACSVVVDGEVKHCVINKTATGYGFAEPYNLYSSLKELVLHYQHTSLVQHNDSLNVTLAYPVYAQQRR

Compound | PI3Kβ IH % @ 1 uM (p110β/p85α) [%] | IC50 (p110β/p85α) [nM] | PI3Kγ IH % @ 1 uM (p110γ) [%] | IC50 (p110γ) [nM] | PI3Kδ IH % @ 1 uM (p110δ/p85α) [%] | IC50 (p110δ/p85α) [nM]
CC(=O)c1cnc(N)nc1NC(C)c1cn2ccc(Cl)c2c(=O)n1-c1ccccc1 (centres unmarked) [Compound 273] | 98.8 | 12 | 98.3 | 5 | >100 | 3
CC(=O)c1c(N)ncnc1NC(C)c1cn2ccc(Cl)c2c(=O)n1-c1ccccc1 (centres unmarked) [Compound 274] | 61.6 |  | 86.8 | 101 | 97.8 | 3
CC(Nc1nc(N)nc2c1C(=O)CCN2)c1cn2ccc(Cl)c2c(=O)n1-c1ccccc1 (centres unmarked) [Compound 275] | 97.5 | 12 | 97.8 | 1 | >100 | 0.4
CC(=O)c1c[nH]c2ncnc(NC(C)c3cn4ccc(Cl)c4c(=O)n3-c3cccc(F)c3)c12 (centres unmarked) [Compound 276] | 52.9 |  | 95.7 | 6 | 99.1 | 1
CC(Nc1ncnc2[nH]cc(C#N)c12)c1cn2ccc(Cl)c2c(=O)n1-c1cccc(F)c1 (centres unmarked) [Compound 277] | 81.4 | 247 | 97.0 | 11 | 99.5 | 1
COCC#Cc1c[nH]c2ncnc(N3CC[C@H]3c3nn4ccc(Cl)c4c(=O)n3-c3ccccc3)c12 [Compound 279] | 43.0 |  | 92.0 | 42 | >100 | 5
Cn1cc(-c2cnc(N)nc2N2CC[C@H]2c2nn3ccc(Cl)c3c(=O)n2-c2ccccc2)cn1 [Compound 280] | −2.0 |  | 87.2 | 256 | 47.0 | 
CN(C)C(=O)c1cnc(N)nc1N1CC[C@H]1c1nn2ccc(Cl)c2c(=O)n1-c1ccccc1 [Compound 281] | 11.1 |  | 62.2 |  | 15.7 | 
Nc1ncc([N+](=O)[O-])c(N2CC[C@H]2c2nn3ccc(Cl)c3c(=O)n2-c2ccccc2)n1 [Compound 282] | 19.9 |  | 93.5 |  | 94.9 | 
Cc1nc(N)nc(N2CC[C@H]2c2nn3ccc(Cl)c3c(=O)n2-c2ccccc2)c1C#N [Compound 283] | 78.0 | 137 | >100 | 1 | >100 | 2
COc1cnc(N)nc1N1CC[C@H]1c1nn2ccc(Cl)c2c(=O)n1-c1ccccc1 [Compound 284] | 9.7 |  | 51.2 |  | 51.2 | 
CC(Nc1ncnc2[nH]cc(F)c12)c1cc2ncc(Cl)n2c(=O)n1-c1ccccc1 (centres unmarked) [Compound 285] | 79.0 | 257 | >100 | 37 | >100 | 4
CC(Nc1ncnc2[nH]cc(S(C)(=O)=O)c12)c1cc2ncc(Cl)n2c(=O)n1-c1ccccc1 (centres unmarked) [Compound 286] | 25.2 |  | 56.2 |  | 88.8 | 29
CC(=O)c1c[nH]c2ncnc(NC(C)c3cc4ncc(Cl)n4c(=O)n3-c3ccccc3)c12 (centres unmarked) [Compound 287] | 73.9 | 463 | 96.9 | 68 | >100 | 5
CC(=O)c1cnc(N)nc1NC(C)c1cc2ncc(Cl)n2c(=O)n1-c1ccccc1 (centres unmarked) [Compound 288] | 94.5 | 93 | 95.8 | 21 | 99.7 | 4
CC(Nc1nc(N)nc2c1C(=O)CCN2)c1cc2ncc(Cl)n2c(=O)n1-c1ccccc1 (centres unmarked) [Compound 290] |  | 39 |  | 4 |  | 1
C=Cc1ccn2nc([C@@H]3CCN3c3ncnc4[nH]cc(C#N)c34)n(-c3ccccc3)c(=O)c12 [Compound 291] | 12.6 |  | 91.1 | 143 | 80.4 | 
C=Cc1ccn2nc([C@@H]3CCCN3c3ncnc4[nH]cc(C#N)c34)n(-c3ccccc3)c(=O)c12 [Compound 292] | 45.1 |  | 94.7 | 112 | >100 | 7
O=c1c2c(Cl)ccn2nc([C@@H]2C[S+]([O-])CN2c2ncnc3[nH]cnc23)n1-c1ccccc1 (stereo partly drawn) [Compound 293, 5-chloro-2-((4R)-1-oxido-3-(9H-purin-6-yl)thiazolidin-4-yl)-3-phenylpyrrolo[2,1-f][1,2,4]triazin-4(3H)-one] | 54.2 |  | 94.7 | 103 | 98.9 | 14
O=c1c2c(Cl)ccn2nc([C@@H]2CSCN2c2ncnc3[nH]cnc23)n1-c1ccccc1 [Compound 294, (R)-2-(3-(9H-purin-6-yl)thiazolidin-4-yl)-5-chloro-3-phenylpyrrolo[2,1-f][1,2,4]triazin-4(3H)-one] | 70.6 | 475 | >100 | 26 | 99.3 | 3
CC(=O)c1c[nH]c2ncnc(N3CC[C@H]3c3nn4ccc(Cl)c4c(=O)n3-c3ccc(F)cc3)c12 [Compound 296, (S)-2-(1-(5-acetyl-7H-pyrrolo[2,3-d]pyrimidin-4-yl)azetidin-2-yl)-5-chloro-3-(4-fluorophenyl)pyrrolo[2,1-f][1,2,4]triazin-4(3H)-one] | 6.8 |  | 85.5 | 36 | 77.0 | 381
CC(=O)c1n[nH]c2ncnc(N3CCC[C@H]3c3nn4ccc(Cl)c4c(=O)n3-c3ccccc3)c12 [Compound 297] | 61.5 |  | 92.7 | 15 | 96.0 | 6
CC(=O)c1n[nH]c2ncnc(N3CC[C@H]3c3nn4ccc(Cl)c4c(=O)n3-c3ccccc3)c12 [Compound 298] | 17.8 |  | 70.2 | 158 | 61.9 | 
CC(=O)c1c(N)ncnc1N1CC[C@H]1c1nn2ccc(Cl)c2c(=O)n1-c1ccccc1 [Compound 300] | 51.5 |  | 82.7 | 148 | 99.1 | 29
CC(=O)c1cnc(N)nc1N1CC[C@H]1c1nn2ccc(Cl)c2c(=O)n1-c1ccc(F)cc1 [Compound 302] | 57.8 |  | 98.6 | 8 | 96.5 | 77
O=c1c2c(Cl)ccn2nc([C@@H]2CCCN2c2ncnc3[nH]cc(C4=NCCO4)c23)n1-c1ccccc1 [Compound 303, (S)-5-chloro-2-(1-(5-(4,5-dihydrooxazol-2-yl)-7H-pyrrolo[2,3-d]pyrimidin-4-yl)pyrrolidin-2-yl)-3-phenylpyrrolo[2,1-f][1,2,4]triazin-4(3H)-one] | 92.7 | 21 | 94.6 | 1 | 97.2 | 1
O=C(NCCO)c1c[nH]c2ncnc(N3CC[C@H]3c3nn4ccc(Cl)c4c(=O)n3-c3ccccc3)c12 [Compound 304] | 47.4 |  | 93.6 |  | 98.2 | 42
